Some test systems named below: SN12C renal; MDA-MB-231 breast; ACHN renal; PC-3 prostate; NCI-H522 lung; OVCAR-5 ovarian; MDA-MB-435; UACC-62 melanoma; SK-MEL-28 melanoma; HOP-92 NSCLC.
Holding throughout (assay): DTP human tumour cell line panel, 48 h

We go through 15 molecules from PubChem BioAssay (NCI).

Each structure is given as a SMILES string.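 Test compounds were applied to cells in 96-well plates for 48 hours at 5 doses. GI50 is the concentration that inhibits growth by half. TGI: concentration producing complete growth inhibition.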 Where only a bound is given, the exact number is not on record here.

Turning to `Cc1cc(S(=O)(=O)O)c(NC(=O)c2oc3cc(O)ccc3c(=O)c2C)cc1Cl`, the TGI in the assay on SN12C renal, in the assay with MDA-MB-231 breast, with ACHN renal, with PC-3 prostate, in the assay with NCI-H522 lung and with OVCAR-5 ovarian was greater than 100 µM throughout. Also, the TGI in the assay with MDA-MB-435, in the assay with UACC-62 melanoma and in the assay with SK-MEL-28 melanoma was greater than 100 µM throughout.

Turning to `O=C1CC2(CCNCC2)C(=O)N1N1CCOCC1`, the TGI with HOP-92 NSCLC, with SN12C renal, in the assay on MDA-MB-231 breast, in the assay on ACHN renal, in the assay on PC-3 prostate and with NCI-H522 lung was greater than 100 µM in each case. In addition, the TGI in the assay with OVCAR-5 ovarian, with UACC-62 melanoma and in the assay on SK-MEL-28 melanoma was greater than 100 µM in each case.

For the molecule `CCOC(=O)CCCn1cc(C(=O)OC)nn1`, the TGI in the assay on HOP-92 NSCLC, in the assay on SN12C renal, in the assay on MDA-MB-231 breast, with ACHN renal, in the assay on PC-3 prostate and in the assay with MDA-MB-435 was greater than 100 µM in each case. For the same molecule, the TGI with UACC-62 melanoma and in the assay on SK-MEL-28 melanoma was greater than 100 µM throughout.

As to `COc1ccc(-c2c3ccccc3c(-c3ccc(OCCCCCBr)cc3)c3ccccc23)cc1`, the TGI with HOP-92 NSCLC, in the assay on SN12C renal, in the assay with ACHN renal, with NCI-H522 lung, in the assay with OVCAR-5 ovarian and in the assay with UACC-62 melanoma was greater than 100 µM in each case. Also, in the assay with SK-MEL-28 melanoma, the TGI was greater than 100 µM.

With `COC(=O)n1c(C[P+](c2ccccc2)(c2ccccc2)c2ccccc2)cc2ccccc21`, the TGI in the assay on HOP-92 NSCLC worked out at 3.34 µM; with SN12C renal, 11.7 µM; in the assay on ACHN renal it was 14.9 µM; in the assay on NCI-H522 lung, 6.34 µM; in the assay with OVCAR-5 ovarian, 8.66 µM; with UACC-62 melanoma, 16.3 µM. In the assay on SK-MEL-28 melanoma, this molecule gave a TGI of 15.7 µM.

Take `CCOc1ccc(-c2oc(/C=N/NS(=O)(=O)c3ccc(C)cc3)c([N+](=O)[O-])c2-c2ccc(OCC)cc2)cc1`: the TGI in the assay on HOP-92 NSCLC was found to be 31.5 µM; in the assay with SN12C renal, 27.5 µM; with ACHN renal, 23.7 µM; in the assay on NCI-H522 lung it was 20.6 µM; in the assay on OVCAR-5 ovarian, 24.1 µM; in the assay on UACC-62 melanoma it was 26 µM. For the same molecule, the TGI in the assay with SK-MEL-28 melanoma is 28.3 µM.

For `Oc1[nH]c2ccccc2c1/C=c1/cc2c(c(-c3ccc(C(F)(F)F)cc3)n1)=Nc1ccccc1-2`, the GI50 in the assay with SN12C renal is 27.9 µM; with MDA-MB-231 breast, 1.89 µM; with ACHN renal, 2.72 µM; with PC-3 prostate, 2.59 µM; in the assay on NCI-H522 lung it was 1.67 µM; in the assay with OVCAR-5 ovarian, 11.8 µM. Moreover, the GI50 with MDA-MB-435 was 0.403 µM; in the assay with UACC-62 melanoma it was 6.32 µM; with SK-MEL-28 melanoma, 1.84 µM. Also, the TGI in the assay with SN12C renal was greater than 100 µM; with MDA-MB-231 breast, 13.9 µM; with ACHN renal, 11.5 µM; in the assay on PC-3 prostate it was 47.4 µM; in the assay on NCI-H522 lung, 14.3 µM; in the assay on OVCAR-5 ovarian, 33.8 µM. The TGI was found to be 10 µM in the assay with MDA-MB-435, 21.9 µM in the assay on UACC-62 melanoma and 18.8 µM in the assay on SK-MEL-28 melanoma.

Turning to `O=CNNC(=O)Nc1ccc(Cl)cc1`, the TGI is 76.8 µM in the assay with HOP-92 NSCLC; greater than 100 µM in the assay on SN12C renal; greater than 100 µM in the assay with MDA-MB-231 breast; greater than 100 µM in the assay on ACHN renal; greater than 100 µM in the assay with OVCAR-5 ovarian; greater than 100 µM in the assay with MDA-MB-435. The TGI in the assay on UACC-62 melanoma and with SK-MEL-28 melanoma was greater than 100 µM in each case.

Take `CCN(CC)CCCCC1CCN(CC(=O)N2c3ccccc3NC(=O)CC2C)CC1` (configuration not stated): the TGI in the assay with HOP-92 NSCLC, in the assay on SN12C renal, in the assay on ACHN renal, in the assay on NCI-H522 lung, in the assay on OVCAR-5 ovarian and with UACC-62 melanoma was greater than 100 µM throughout. The TGI in the assay with SK-MEL-28 melanoma was greater than 100 µM.

As for `CC(=O)NC1=C(NCC(C)C)C(=O)c2ccccc2C1=O`, the concentration for total growth inhibition (TGI) in the assay on HOP-92 NSCLC is 28.3 µM; with SN12C renal, 31.2 µM; in the assay on ACHN renal, greater than 100 µM; with OVCAR-5 ovarian, greater than 100 µM; in the assay on UACC-62 melanoma it was 34.7 µM; in the assay on SK-MEL-28 melanoma, 37.2 µM.

For `O=[N+]([O-])/C=C/c1cn(CCCCCn2cc(/C=C/[N+](=O)[O-])c3ccccc32)c2ccccc12`, the TGI in the assay with HOP-92 NSCLC was 67 µM; in the assay with SN12C renal it was greater than 21.5 µM; in the assay on MDA-MB-231 breast, 4.28 µM; in the assay on ACHN renal it was 13.9 µM; in the assay on PC-3 prostate, 15 µM; in the assay on NCI-H522 lung, 50.4 µM. For the same molecule, the TGI in the assay with OVCAR-5 ovarian stood at 32.3 µM; in the assay with UACC-62 melanoma, 31.5 µM; in the assay with SK-MEL-28 melanoma, 12.2 µM.

Take `CCCCCCOc1ccc(C(=N)N(CCCC)CCCC)c2ccccc12`: the GI50 was 1.07 µM in the assay with HOP-92 NSCLC; 1.53 µM with PC-3 prostate; 0.61 µM in the assay with NCI-H522 lung; 1.53 µM in the assay on OVCAR-5 ovarian; 1.6 µM in the assay on UACC-62 melanoma; 1.77 µM in the assay with SK-MEL-28 melanoma. Moreover, the TGI in the assay on HOP-92 NSCLC worked out at 2.6 µM; with PC-3 prostate, 3.05 µM; with NCI-H522 lung it was 2.07 µM; in the assay on OVCAR-5 ovarian, 2.94 µM; in the assay with UACC-62 melanoma it was 3.23 µM; in the assay on SK-MEL-28 melanoma, 3.2 µM.

`CNc1ccc(S(=O)Nc2ccccc2)cc1` (configuration not stated): the TGI with SN12C renal is greater than 100 µM; in the assay with MDA-MB-231 breast, greater than 100 µM; with ACHN renal it was greater than 100 µM; in the assay on NCI-H522 lung, 96.7 µM; with OVCAR-5 ovarian, greater than 100 µM; in the assay with MDA-MB-435, greater than 100 µM. Moreover, the TGI in the assay with UACC-62 melanoma is 81.3 µM; in the assay with SK-MEL-28 melanoma it was greater than 100 µM.

As to `O=c1c2c(nc3n1CCC3)sc1c(O)c(Br)ccc12`, the TGI with HOP-92 NSCLC was greater than 100 µM; with SN12C renal, 43.1 µM; in the assay on ACHN renal, 35.8 µM; in the assay on NCI-H522 lung, 37.9 µM; in the assay with OVCAR-5 ovarian, 51.7 µM; with UACC-62 melanoma it was 35.8 µM. Also, the TGI in the assay with SK-MEL-28 melanoma was found to be 34.8 µM.

As to `C/C(=C\Cc1cc(O)ccc1O)CCc1c(C)cc(O)c(C=O)c1C`, the TGI in the assay with HOP-92 NSCLC worked out at 35.3 µM; in the assay on SN12C renal, 92.4 µM; in the assay with ACHN renal, 44.3 µM; with NCI-H522 lung it was 23.6 µM; in the assay on SK-MEL-28 melanoma, 54.7 µM.
